US8765755B2, “N-containing heterocyclic compounds” (YM Biosciences Australia Pty Ltd, priority 2007, dated 2014)

Key:
[1] = system: BAF3wt; test: Cellular screening, BaF3 wild-type cells (Alamar Blue); assay type: cell-based; conditions: Mus musculus, 40 hr incubation
Description: (§1) For screening purposes, compounds were diluted in 96 well plates at a concentration of 20 μM. Plates were warmed at 37° C. for 30 minutes before the assay was performed.
(§2) The growth factor dependant myelomonocytic cell line BaF3 bearing the pTET-off plasmid (Clontech) was transfected with either pTELJAK2 or pTELJAK3, and the transfected cells were selected for growth-factor independent cell growth. The BaF3 wild-type cells were cultured in DMEM containing 10% FCS, 10% WEHI 3B conditioned medium. The BaF3 TELJAK cells ([…]) were cultured in DMEM 10% Tet-System Approved FBS (without WEHI 3B conditioned medium).
(§3) Cell suspensions were prepared by harvesting cells from culture. (the cells used in this test were in late log phase growth with high viability.) Cells were diluted in the appropriate growth medium, as described above, to 1.1× final concentration (from 50,000 cell/mL to 200,000 cell/mL, depending on cell line).
(§4) Compounds to be tested were added (10 μL, 10× final concentration) to a flat bottomed 96-well plate. The cellular suspension (90 μL per well) was then added, and the plate incubated for 40 hr at 37° C., 5% CO2. Alamar Blue 10 μL per well was added and the plates returned to the incubator for a further 4-6 hours. The plates were then read at 544 nm.

[2] = system: BafT_J3; test: Cellular screening, BaF3 TEL:JAK3 cells (Alamar Blue); assay type: cell-based; conditions: Mus musculus, 40 hr incubation
Description: as §1
(§5) The coding region encompassing nucleotides 1-487 of TEL was amplified by PCR using the oligonucleotides 5TEL (5′-GGAGGATCCTGATCTCTCTCGCTGTGAGAC-3′) [SEQ ID NO 14] and 3TEL (5′-AGGC GTCGACTTCTTCTTCATGGTTCTG-3′) [SEQ ID NO 15] and U937 mRNA as a template. A BamHI restriction site was incorporated into the 5TEL primer, and a Sal I restriction site was incorporated into the 3TEL primer. The regions encompassing the kinase domain of JAK2 (nucleotides 2994-3914; JAK2F 5′-ACGC GTCGACGGTGCCTTTGAAGACCGGGAT-3′ [SEQ ID NO 16]; JAK2R 5′-ATAGTTTAGCGGCCGCTCAGAATGAAGGTCATTT-3′) [SEQ ID NO 17] and JAK3 (nucleotides 2520-3469; JAK3F 5′-GAAGTCGACTATGCCTGCCAAGACCCCACGATCTT-3′) [SEQ ID NO 18] were generated by PCR using Taq DNA polymerase (Gibco/BRL) and U937 mRNA as a template. A Sal I restriction site was incorporated into the forward primer of JAK2 and JAK3, a Not I site was incorporated into the JAK2 reverse primer and a Xba I site was added to the reverse primer of JAK3.
The TEL/Jak3 fusion was prepared by ligation of the JAK3 Sal I/Not I cleaved kinase domain PCR product with the BamH I/Sal I restriction digested TEL product, followed by ligation of the ligation product into the BamH I/Not I digested pTRE2, to give the TEL/Jak3 fusion plasmid pTELJAK3.
as §2, §3, §4

[3] = target: T1, human JAK2 (Homo sapiens, UniProt O60674); test: JAK2 kinase enzyme assay (Alphascreen); assay type: biochemical; conditions: 80 or 625 um ATP
T1 construct: The kinase domain of human JAK2 was amplified; GST (N); made in house; host or cells: Sf9 (Spodoptera frugiperda) insect cells, baculovirus
T1 sequence (O60674 849-1124 limits assumed): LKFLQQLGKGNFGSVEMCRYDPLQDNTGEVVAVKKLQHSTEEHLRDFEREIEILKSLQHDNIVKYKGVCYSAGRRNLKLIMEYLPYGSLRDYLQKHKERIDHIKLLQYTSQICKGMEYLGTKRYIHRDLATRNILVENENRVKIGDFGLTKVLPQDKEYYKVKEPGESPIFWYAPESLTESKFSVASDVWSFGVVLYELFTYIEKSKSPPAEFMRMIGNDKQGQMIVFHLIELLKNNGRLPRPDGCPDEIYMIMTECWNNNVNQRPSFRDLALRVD
Description: (§6) For screening purposes, compounds (in 100% DMSO) were warmed at 37 degrees for at least 20 minutes before use. A […] stock was initially made in assay buffer, where the final concentration of DMSO was 0.3%. The stocks were then diluted in 384 well Optiplates (Packard) where the final concentration of the compound was 5 μM.
The kinase domain of human JAK2 was amplified from U937mRNA using the polymerase chain reaction with the following primers: […]
The JAK2 PCR products were cloned into the pDest20 destination vector (Gibco). The JAK2 plasmid was then transformed into competent DH10Bac cells (Gibco), and the recombinant baculovirus was prepared via Sf9 insect cell transfection.
(§7) Baculovirus preparations from each of the JAK family members were infected into one litre of Sf9 (Spodoptera frugiperda) cells (Invitrogen) grown in SF900II serum free medium (Invitrogen) to a cell density of approximately 2×10^6 cells/ml. Cells were infected with virus at a cell culture to virus stock ratio of 20:1. Cells were harvested and lysed 48 hours post infection. The GST-tagged JAK kinase domains were purified by affinity chromatography on a GSH agarose column (Scientifix).
(§8) Kinase assays were performed in 384 well Optiplates (Packard) using an Alphascreen Protein Tyrosine KinaseP100 detection kit The compounds were pre-incubated with affinity purified PTK domain in the presence of phosphotyrosine assay buffer (10 mM HEPES, pH 7.5, 100 mM MgCl2, 25 mM NaCl, 200 mM sodium vanadate and 0.1% Tween 20) for 20 minutes. The compounds were then incubated with substrate in the presence of either 80 or 625 um ATP for 60 or 90 minutes. The substrate used was either susbtrate-1 with the sequence biotin-EGPWLEEEEEAYGWMDF-NH2 [SEQ. ID. NO. 13] (final concentration 111 μM) or susbtrate-2 substrate with the sequence biotin-EQEDEPEGDYFEWLEPE (final concentration 133 μM). Alphascreen phosphotyrosine acceptor beads followed by streptavidin donor beads at a concentration of 1/100 in stop buffer were added to each well under subdued light and incubated for 2-3 hours. The Alphascreen plates were read on a Packard Fusion Alpha instrument.

[4] = system: CTLL2; test: Cellular screening, CTLL2 cells (Alamar Blue); assay type: cell-based; conditions: Mus musculus, CTLL-2, 40 hr incubation
Description: as §1, §3, §4

[5] = target: T2, human JAK3 (Homo sapiens, UniProt P52333); test: JAK3 kinase enzyme assay (Alphascreen); assay type: biochemical; conditions: 80 or 625 um ATP
T2 construct: The kinase domain of human JAK3 was amplified; GST (N); made in house; host or cells: Sf9 (Spodoptera frugiperda) insect cells, baculovirus
T2 sequence (P52333 822-1111 limits assumed): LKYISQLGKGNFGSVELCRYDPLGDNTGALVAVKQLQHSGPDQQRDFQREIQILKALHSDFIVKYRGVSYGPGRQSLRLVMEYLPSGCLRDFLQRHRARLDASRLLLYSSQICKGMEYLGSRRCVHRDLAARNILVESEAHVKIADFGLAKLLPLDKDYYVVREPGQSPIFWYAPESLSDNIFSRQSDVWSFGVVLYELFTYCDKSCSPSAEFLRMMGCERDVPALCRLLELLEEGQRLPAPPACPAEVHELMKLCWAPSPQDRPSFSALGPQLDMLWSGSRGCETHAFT
Description: as §6
The kinase domain of human JAK3 was amplified from U937mRNA using the polymerase chain reaction with the following primers: […]
The JAK3 PCR products were cloned into the pDest20 destination expression vector (Gibco). The JAK3 plasmid was then transformed into competent DH10Bac cells (Gibco), and the recombinant baculovirus was prepared via Sf9 insect cell transfection.
as §7, §8

[6] = system: BafT_J2; test: Cellular screening, BaF3 TEL:JAK2 cells (Alamar Blue); assay type: cell-based; conditions: Mus musculus, 40 hr incubation
Description: as §1, §5
A TEL/Jak2 fusion was generated by digestion of the TELPCR product with BamH I/Sal I restriction enzymes, digestion of the JAK2 PCR product with Sal I/Not I restriction enzymes, followed by ligation and subcloning of the ligation product into the mammalian expression Vector pTRE 2 (Clontech), which was prepared by digestion with BamH I-Not I restriction enzymes, to give the TEL/Jak2 fusion plasmid pTELJAK2.
as §2, §3, §4

## Nc1ccc(-c2csc3cnc(Nc4ccc(N5CCOCC5)cc4)nc23)cc1 [Compound 2, 7-(4-aminophenyl)-N-(4-morpholinophenyl)thieno[3,2-d]pyrimidin-2-amine]
[1]
  IC50: < 1000 nM
[2]
  IC50: < 1000 nM
[3]
  IC50: < 100 nM
[4]
  IC50: < 1000 nM
[5]
  IC50: < 100 nM
[6]
  IC50: < 1000 nM

## C=CC(=O)Nc1ccc(-c2csc3cnc(Nc4ccc(N5CCOCC5)cc4)nc23)cc1 [Compound 3, N-(4-(2-(4-morpholinophenylamino)thieno[3,2-d]pyrimidin-7-yl)phenyl)acrylamide]
[1]
  IC50: < 5000 nM
[2]
  IC50: < 1000 nM
[3]
  IC50: < 100 nM
[4]
  IC50: < 1000 nM
[5]
  IC50: < 100 nM
[6]
  IC50: < 5000 nM

## Nc1cccc(-c2csc3cnc(Nc4ccc(N5CCOCC5)cc4)nc23)c1 [Compound 4, 7-(3-aminophenyl)-N-(4-morpholinophenyl)thieno[3,2-d]pyrimidin-2-amine]
[1]
  IC50: < 1000 nM
[2]
  IC50: < 1000 nM
[3]
  IC50: < 100 nM
[4]
  IC50: < 1000 nM
[5]
  IC50: < 100 nM
[6]
  IC50: < 1000 nM

## C=CC(=O)Nc1cccc(-c2csc3cnc(Nc4ccc(N5CCOCC5)cc4)nc23)c1 [Compound 5, N-(3-(2-(4-morpholinophenylamino)thieno[3,2-d]pyrimidin-7-yl)phenyl)acrylamide]
[1]
  IC50: < 1000 nM
[2]
  IC50: < 1000 nM
[3]
  IC50: < 100 nM
[4]
  IC50: < 1000 nM
[5]
  IC50: < 100 nM
[6]
  IC50: < 5000 nM

## COc1cc(-c2csc3cnc(Nc4ccc(N5CCOCC5)cc4)nc23)ccc1N [Compound 10, 7-(4-amino-3-methoxyphenyl)-N-(4-morpholinophenyl)thieno[3,2-d]pyrimidin-2-amine]
[1]
  IC50: < 1000 nM
[2]
  IC50: < 1000 nM
[3]
  IC50: < 100 nM
[4]
  IC50: < 1000 nM
[5]
  IC50: < 100 nM
[6]
  IC50: < 1000 nM

## CCc1ccccc1-c1csc2cnc(Nc3cccc(N)c3)nc12 [Compound 22, N1-(7-(2-ethylphenyl)thieno[3,2-d]pyrimidin-2-yl)benzene-1,3-diamine]
[1]
  IC50: < 5000 nM
[2]
  IC50: < 5000 nM
[3]
  IC50: < 100 nM
[4]
  IC50: < 1000 nM
[5]
  IC50: < 100 nM
[6]
  IC50: < 1000 nM

## CCc1ccccc1-c1csc2cnc(Nc3ccc(N4CCOCC4)cc3)nc12 [Compound 29, 7-(2-ethylphenyl)-N-(4-morpholinophenyl)thieno[3,2-d]pyrimidin-2-amine]
[1]
  IC50: < 1000 nM
[2]
  IC50: < 1000 nM
[3]
  IC50: < 100 nM
[4]
  IC50: < 1000 nM
[5]
  IC50: < 100 nM
[6]
  IC50: < 1000 nM

## CC(=O)Nc1cccc(-c2csc3cnc(Nc4ccc(N5CCOCC5)cc4)nc23)c1 [Compound 30, N-(3-(2-(4-morpholinophenylamino)thieno[3,2-d]pyrimidin-7-yl)phenyl)acetamide]
[1]
  IC50: < 1000 nM
[2]
  IC50: < 1000 nM
[3]
  IC50: < 100 nM
[4]
  IC50: < 5000 nM
[5]
  IC50: < 100 nM
[6]
  IC50: < 1000 nM

## CS(=O)(=O)N(CC#N)c1ccc(-c2csc3cnc(Nc4ccc(N5CCOCC5)cc4)nc23)cc1 [Compound 32, N-(cyanomethyl)-N-(4-(2-(4-morpholinophenylamino)thieno[3,2-d]pyrimidin-7-yl)phenyl)methanesulfonamide]
[1]
  IC50: < 5000 nM
[2]
  IC50: < 1000 nM
[3]
  IC50: < 100 nM
[4]
  IC50: < 1000 nM
[5]
  IC50: < 100 nM
[6]
  IC50: < 1000 nM

## Cn1cc(-c2ccc(NS(C)(=O)=O)cc2)c2nc(Nc3ccc(N4CCOCC4)cc3)ncc21 [Compound 35, N-(4-(5-methyl-2-(4-morpholinophenylamino)-5H-pyrrolo[3,2-d]pyrimidin-7-yl)phenyl)methanesulfonamide]
[1]
  IC50: < 5000 nM
[2]
  IC50: < 20000 nM
[3]
  IC50: < 100 nM
[4]
  IC50: < 5000 nM
[5]
  IC50: < 1000 nM
[6]
  IC50: < 5000 nM

## CC(C)c1ccccc1-c1csc2cnc(Nc3ccc(N4CCOCC4)cc3)nc12 [Compound 37, 7-(2-isopropylphenyl)-N-(4-morpholinophenyl)thieno[3,2-d]pyrimidin-2-amine]
[1]
  IC50: < 1000 nM
[2]
  IC50: < 1000 nM
[3]
  IC50: < 100 nM
[4]
  IC50: < 1000 nM
[5]
  IC50: < 100 nM
[6]
  IC50: < 1000 nM

## Nc1ccc(-c2csc3cnc(Nc4ccc(N5CCOCC5)cc4)nc23)cc1[N+](=O)[O-] [Compound 44, 7-(4-amino-3-nitrophenyl)-N-(4-morpholinophenyl)thieno[3,2-d]pyrimidin-2-amine]
[1]
  IC50: < 5000 nM
[2]
  IC50: < 5000 nM
[3]
  IC50: < 100 nM
[4]
  IC50: < 5000 nM
[5]
  IC50: < 100 nM
[6]
  IC50: < 1000 nM

## COc1ncccc1-c1csc2cnc(Nc3ccc(N4CCOCC4)cc3)nc12 [Compound 45, 7-(2-methoxypyridin-3-yl)-N-(4-morpholinophenyl)thieno[3,2-d]pyrimidin-2-amine]
[1]
  IC50: < 1000 nM
[2]
  IC50: < 1000 nM
[3]
  IC50: < 100 nM
[4]
  IC50: < 1000 nM
[5]
  IC50: < 100 nM
[6]
  IC50: < 1000 nM

## COc1ccc(Nc2ncc3scc(-c4cccnc4OC)c3n2)cc1OC [Compound 52, N-(3,4-dimethoxyphenyl)-7-(2-methoxypyridin-3-yl)thieno[3,2-d]pyrimidin-2-amine]
[1]
  IC50: < 1000 nM
[2]
  IC50: < 1000 nM
[3]
  IC50: < 100 nM
[4]
  IC50: < 1000 nM
[5]
  IC50: < 100 nM
[6]
  IC50: < 1000 nM

## COc1ccc(-c2csc3cnc(Nc4ccc(OC)c(OC)c4)nc23)c(OC)n1 [Compound 55, N-(3,4-dimethoxyphenyl)-7-(2,6-dimethoxypyridin-3-yl)thieno[3,2-d]pyrimidin-2-amine]
[1]
  IC50: < 5000 nM
[2]
  IC50: < 5000 nM
[3]
  IC50: < 100 nM
[4]
  IC50: < 5000 nM
[5]
  IC50: < 100 nM
[6]
  IC50: < 5000 nM
